Measurements taken from PMC10584170, “Machine learning-based phenotypic imaging to characterise the targetable biology of Plasmodium falciparum male gametocytes for the development of transmission-blocking antimalarials” (PLOS Pathogens, 2023).
Like-named read-outs stand apart in the source and are kept apart here.

Key:
[1] = system: P. falciparum male gametocytes; test: P. falciparum Dual Gamete Formation Assay (PfDGFA), male readout (exflagellation); type: cell-based, Plasmodium falciparum NF54; conditions: for Activity: hit = >50% inhibition in male or female readout in at least 3 replicates, 0 = no class assigned
Outline: (§1)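 Day-14 NF54 gametocytes were incubated with compound for 24 h at 37°C under 1% O2/3% CO2/96% N2. Gametogenesis was triggered with ookinete medium (0.1 μM xanthurenic acid) plus Cy3-anti-Pfs25, and exflagellation was imaged by brightfield after cooling to 4°C then 28°C. Females were imaged by Pfs25 fluorescence 24 h later at 28°C.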

[2] = system: P. falciparum female gametocytes; test: P. falciparum Dual Gamete Formation Assay (PfDGFA), female readout (Pfs25-positive female gametes); type: cell-based, Plasmodium falciparum NF54
Outline: as §1

[3] = 2µM, 24h preincubation with gametocytes prior to induction of gametogenesis, average of replicates
[4] = 2µM, 24h preincubation with gametocytes prior to induction of gametogenesis, replicate R1
[5] = 2µM, 24h preincubation with gametocytes prior to induction of gametogenesis, replicate R3
[6] = 2µM, 24h preincubation with gametocytes prior to induction of gametogenesis, replicate R4
[7] = 2µM, 24h preincubation, hits selected on >50% inhibition in the male readout across replicates
[8] = PfDGFA at 2µM, 24h preincubation
[9] = 2µM, 24h preincubation, hits selected on >50% inhibition in the female readout across replicates
[10] = PfDGFA at 2µM, 24h preincubation with gametocytes prior to induction of gametogenesis, replicate R1
[11] = PfDGFA at 2µM, 24h preincubation with gametocytes prior to induction of gametogenesis, replicate R3
[12] = PfDGFA at 2µM, 24h preincubation with gametocytes prior to induction of gametogenesis, replicate R4
[13] = PfDGFA at 2µM, 24h preincubation, average of replicates
[14] = PfDGFA at 2µM, 24h preincubation with gametocytes, average of replicates
[15] = PfDGFA at 2µM, 24h preincubation with gametocytes, replicate R1
[16] = PfDGFA at 2µM, 24h preincubation with gametocytes, replicate R3
[17] = PfDGFA at 2µM, 24h preincubation with gametocytes, replicate R4
[18] = number of replicates with >50% inhibition in the male readout, 2µM
[19] = number of replicates with >50% inhibition in the female readout, 2µM
[20] = 2µM, 24h preincubation with gametocytes, average of replicates
[21] = 2µM, 24h preincubation with gametocytes, replicate R1
[22] = 2µM, 24h preincubation with gametocytes, replicate R3
[23] = 2µM, 24h preincubation with gametocytes, replicate R4
[24] = 2µM, 24h preincubation, number of replicates with >50% inhibition in the male readout
[25] = 2µM, 24h preincubation, number of replicates with >50% inhibition in the female readout

SMILES | Average inhibition male (%) [1, 3] [%] | % inhibition male (individual replicates) R1 [1, 4] [%] | % inhibition male (individual replicates) R3 [1, 5] [%] | % inhibition male (individual replicates) R4 [1, 6] [%] | HitlevelM [1, 7] | Activity [1, 8] | Average inhibition female (%) [2, 3] [%] | % inhibition female (individual replicates) R1 [2, 4] [%] | % inhibition female (individual replicates) R3 [2, 5] [%] | % inhibition female (individual replicates) R4 [2, 6] [%] | HitlevelF [2, 9] | other results
COc1cc2ncnc(Nc3ccc(OCc4ccccc4)c(OCc4ccccc4)c3)c2cc1OC.Cl [TCMDC-131922] | 5.7 | 10.5 | 8.7 | 6.9 | 0 | 0 | 10.3 | 5.3 | 31.5 | 4.3 | 0 | 
NCCCNc1nccc(N2CCc3ncnc(Nc4ccc(OCc5cccc(F)c5)c(Cl)c4)c3C2)n1 [TCMDC-135456] | -16.9 | -14.5 | -30.0 | -11.8 | 0 | 0 | 13.8 | 10.7 | -9.6 | 40.7 | 0 | 
CC(=O)Nc1cccc(Nc2nccc(-c3c(-c4cccc(NC(=O)c5c(F)cccc5F)c4)nn4ncccc34)n2)c1 [TCMDC-135548] |  |  |  |  |  |  |  |  |  |  |  | % inhibition male (individual replicates) R1 [1, 10]: 29.2%; % inhibition male (individual replicates) R3 [1, 11]: 23.6%; % inhibition male (individual replicates) R4 [1, 12]: -3.8%; Average inhibition male (%) [1, 13]: 8.8%; % inhibition female (individual replicates) R1 [2, 10]: -7.4%; % inhibition female (individual replicates) R3 [2, 11]: -25.4%; % inhibition female (individual replicates) R4 [2, 12]: -8.4%; Average inhibition female (%) [2, 13]: -11.7%
CCOc1ccc2ccccc2c1CNCCCCCCNCc1c(OCC)ccc2ccccc12.CS(=O)(=O)O [TCMDC-137791] |  |  |  |  |  |  |  |  |  |  |  | Average inhibition male (%) [1, 14]: 87.1%; % inhibition male (individual replicates) R1 [1, 15]: 89.3%; % inhibition male (individual replicates) R3 [1, 16]: 68.9%; % inhibition male (individual replicates) R4 [1, 17]: 93.6%; HitlevelM [1, 18]: 4; Average inhibition female (%) [2, 14]: 47.4%; % inhibition female (individual replicates) R1 [2, 15]: 37.1%; % inhibition female (individual replicates) R3 [2, 16]: 17.2%; % inhibition female (individual replicates) R4 [2, 17]: 66.6%; HitlevelF [2, 19]: 2
CCn1c(-c2nonc2N)nc2c(-c3ccccc3)ncc(OCCCCNCCc3ncc[nH]3)c21.O=C(O)C(F)(F)F [TCMDC-136000] |  |  |  |  |  |  |  |  |  |  |  | Average inhibition male (%) [1, 20]: 92.8%; % inhibition male (individual replicates) R1 [1, 21]: 92.7%; % inhibition male (individual replicates) R3 [1, 22]: 86.1%; % inhibition male (individual replicates) R4 [1, 23]: 98.9%; Average inhibition female (%) [2, 20]: 36.6%; % inhibition female (individual replicates) R1 [2, 21]: 29.5%; % inhibition female (individual replicates) R3 [2, 22]: 30.1%; % inhibition female (individual replicates) R4 [2, 23]: 56.9%
CS(=O)(=O)Cc1ccc(Nc2ncc(Cl)c(Nc3cccnc3C(N)=O)n2)cc1.Cl [TCMDC-134165] |  |  |  |  |  |  |  |  |  |  |  | Selectivity Ratio M ([1]; HepG2 Tox50 versus male IC50): 16.00; inhibition at 2 µM ([1]; Plasmodium falciparum, 2µM, 24h preincubation with gametocytes, average of replicates, read-out: Average inhibition male (%)): 92.8%; inhibition at 2 µM ([1]; Plasmodium falciparum, 2µM, 24h preincubation with gametocytes, replicate R1, read-out: % inhibition male (individual replicates) R1): 89.8%; inhibition at 2 µM ([1]; Plasmodium falciparum, 2µM, 24h preincubation with gametocytes, replicate R2, read-out: % inhibition male (individual replicates) R2): 95.7%; inhibition at 2 µM ([1]; Plasmodium falciparum, 2µM, 24h preincubation with gametocytes, replicate R3, read-out: % inhibition male (individual replicates) R3): 93.3%; inhibition at 2 µM ([1]; Plasmodium falciparum, 2µM, 24h preincubation with gametocytes, replicate R4, read-out: % inhibition male (individual replicates) R4): 92.2%; IC50 ([1]; Plasmodium falciparum, PfDGFA, 24 h incubation with gametocytes before induction, exflagellation readout, read-out: Male IC50): 6.25 µM; Selectivity ratio F ([2]; HepG2 Tox50 versus female IC50): 10.00; inhibition at 2 µM ([2]; Plasmodium falciparum, 2µM, 24h preincubation with gametocytes, average of replicates, read-out: Average inhibition female (%)): -4.3%; inhibition at 2 µM ([2]; Plasmodium falciparum, 2µM, 24h preincubation with gametocytes, replicate R1, read-out: % inhibition female (individual replicates) R1): -8.1%; inhibition at 2 µM ([2]; Plasmodium falciparum, 2µM, 24h preincubation with gametocytes, replicate R2, read-out: % inhibition female (individual replicates) R2): -1.5%; inhibition at 2 µM ([2]; Plasmodium falciparum, 2µM, 24h preincubation with gametocytes, replicate R3, read-out: % inhibition female (individual replicates) R3): -18.7%; inhibition at 2 µM ([2]; Plasmodium falciparum, 2µM, 24h preincubation with gametocytes, replicate R4, read-out: % inhibition female (individual replicates) R4): 10.9%; IC50 ([2]; Plasmodium falciparum, PfDGFA, 24 h incubation with gametocytes before induction, female gamete readout, read-out: Female IC50): > 10 µM
COc1cc(Cc2cnc(N)nc2N)cc(OCCCC(=O)O)c1OC [TCMDC-137359] | 4.4 | 4.7 | 7.0 | 5.5 | 0 | 0 | 3.8 | 8.3 | -22.8 | 31.0 | 0 | 
COc1ccc(CCNCCCCCNCCc2ccc(Cl)cc2)cc1OC.Cl [TCMDC-131269] | 50.1 | 46.0 | 29.0 | 62.2 | 2 | 0 | 7.8 | 17.8 | -21.2 | 18.8 | 0 | 
COc1ccc2ccccc2c1CCCCN1CCN(CC(c2ccc(F)cc2)N2CCC(N3CCCC3)CC2)CC1.O=C(O)C(F)(F)F (centres unmarked) [TCMDC-135866] | 26.2 | 24.9 | 0.4 | 58.9 |  |  | 23.8 | 27.0 | 20.6 | 10.9 |  | HitlevelM [1, 24]: 1; HitlevelF [2, 25]: 0
COc1ccc(CNC2CCN(C)CC2)cc1-c1ccc(S(=O)(=O)NCc2ccccc2)c(C)c1.O=C(O)C(F)(F)F [TCMDC-132480] |  |  |  |  |  |  |  |  |  |  |  | Average inhibition male (%) [1, 14]: 78.0%; % inhibition male (individual replicates) R1 [1, 15]: 73.4%; % inhibition male (individual replicates) R3 [1, 16]: 67.7%; % inhibition male (individual replicates) R4 [1, 17]: 91.6%; HitlevelM [1, 18]: 4; Average inhibition female (%) [2, 14]: 36.3%; % inhibition female (individual replicates) R1 [2, 15]: 30.7%; % inhibition female (individual replicates) R3 [2, 16]: 36.3%; % inhibition female (individual replicates) R4 [2, 17]: 41.6%; HitlevelF [2, 19]: 0
CC(Cc1ccc(CNC(=O)c2ccc(CC(C)NCCc3cccc(Cl)c3)cc2)cc1)NCCc1cccc(Cl)c1 (centres unmarked) [TCMDC-139659] | 33.9 | 26.3 | 2.8 | 42.9 | 1 | 0 | 5.1 | 10.4 | -19.4 | -1.7 | 0 | 
FC(F)(F)c1ccc2[nH]c(-c3ccc(-c4cccc(CN5CCC(CCN6CCCCC6)CC5)c4)cc3)nc2c1.O=C(O)C(F)(F)F [TCMDC-133941] |  |  |  |  |  |  |  |  |  |  |  | Average inhibition male (%) [1, 14]: 80.4%; % inhibition male (individual replicates) R1 [1, 15]: 88.3%; % inhibition male (individual replicates) R3 [1, 16]: 55.8%; % inhibition male (individual replicates) R4 [1, 17]: 84.9%; HitlevelM [1, 18]: 4; Average inhibition female (%) [2, 14]: 50.7%; % inhibition female (individual replicates) R1 [2, 15]: 37.2%; % inhibition female (individual replicates) R3 [2, 16]: 33.9%; % inhibition female (individual replicates) R4 [2, 17]: 67.8%; HitlevelF [2, 19]: 2
Cl.c1ccc2c(Nc3ccc(Cc4ccc(Nc5c6ccccc6nc6ccccc56)cc4)cc3)c3ccccc3nc2c1 [TCMDC-137354] | 52.9 | 49.4 | 55.5 | 71.3 |  |  | 87.8 | 83.3 | 91.0 | 96.5 |  | HitlevelM [1, 24]: 2; HitlevelF [2, 25]: 4
NC1CCN(Cc2ccc(-c3ccc(-c4nc5cc(F)ccc5[nH]4)cc3)cc2)C1.O=C(O)C(F)(F)F (centres unmarked) [TCMDC-133872] | 30.9 | 32.1 | 18.9 | 53.6 | 1 | 0 | 9.7 | 21.7 | 5.5 | 3.9 | 0 | 
